Values of other authors as cited in patent publication US6908630B2, “Combinations of sesquiterpene lactones and ditepene triepoxide lactones for synergistic inhibition of cyclooxygenase-2” (Metaproteomics, LLC, priority 2000, dated 2005).

Conditions: gastrointestinal disturbance, nausea and vomiting, hypotension, edema

For `CC(C)[C@]12O[C@H]1[C@@H]1O[C@]13[C@]1(O[C@H]1C[C@H]1C4=C(CC[C@@]13C)C(=O)OC4)[C@@H]2O` [Triptolide], the “patients showing some type of side effects” value is listed as “Approximately 28%”.
